{
  "source": "paper PMC6561105",
  "about": "(Journal of medicinal chemistry, 2019)",
  "key": {"[1]": {"tested_on": "HOXA9/DNA binding (HBS, HOXA9-binding site)", "design": "species or system human", "settings": "ELISA-derived assay and EMSA, Figure 1; SAR discussion"}, "[2]": {"tested_on": "HOXA9 binding site 5′-ATTTA", "assay": "DNase I footprinting"}, "[3]": {"tested_on": "Itgam, Oasl2, Akap13, Arfgef1 expression in MigA9 cells", "assay": "qRT-PCR of differentiation-associated genes", "assay_type": "cell-based, murine", "settings": "MigA9, 5 or 10μM, 48 hours"}, "[4]": {"tested_on": "K562 cells", "assay": "Colony-forming assay K562", "assay_type": "cell-based, human", "settings": "2.5μM, 10 days, 1000 cells/well, mean +/− s.e.m"}, "[5]": {"tested_on": "HOXA9-mediated transactivation", "assay": "HOXA9-driven luciferase assay", "assay_type": "cell-based, human", "settings": "K562 transfected with pCMV-AD-HOXA9 and wild-type HBS reporter, 20μM, 48H"}, "[6]": {"tested_on": "MigA9 cells", "settings": "2.5μM, 10 days; for MigA9 Number of colonies, Total: 1000 cells/well"}, "[7]": {"tested_on": "HMG-box protein", "assay": "HMG-box protein DNA binding", "settings": "specificity control"}, "[8]": {"tested_on": "MigA9 and/or HT-29 cells", "assay": "Cellular distribution by fluorescence microscopy", "assay_type": "cell-based", "settings": "intrinsic fluorescence; MigA9 20 μM 2h and/or HT-29 5μM 16H"}, "[9]": {"tested_on": "HBS DNA sequence", "assay": "Circular dichroism on HBS oligonucleotide", "assay_type": "binding", "settings": "300-400 nm, increasing drug/DNA ratio"}, "[10]": {"tested_on": "MigA9 cells", "assay": "Cell cycle and sub-G1 analysis", "assay_type": "cell-based, murine"}, "[11]": {"tested_on": "HOXA9/HBS complex", "assay_type": "binding, human", "settings": "from EMSA quantification"}},
  "note": "Counter-ions that a name gives are not always drawn. Marks after values point to notes of the source that are not given here.",
  "data": [
    {"smiles": "N=C(N)c1ccc(-c2ccc(-c3ccc(C(=N)N)cc3)s2)cc1", "note": "[DB351]", "values": [
      {"measurement": "HOXA9/DNA binding inhibition (in words)", "setting": "[1]", "value": "inactive"}
    ]},
    {"smiles": "N=C(N)c1ccc(-c2ccc(-c3nc4ccc(C(=N)N)cc4[nH]3)s2)cc1", "note": "[DB818]", "values": [
      {"measurement": "recognition of 5′-ATTTA site in DNase I footprinting", "setting": "[2]", "value": "protected site was clearly evidenced"},
      {"measurement": "over-expression of Itgam, Oasl2, Akap13 and Arfgef1", "setting": "[3]", "value": "over-expression"},
      {"measurement": "K562 Number of colonies, Total", "setting": "[4]", "value": "448 +/− 17"},
      {"measurement": "inhibition of HOXA9-mediated transactivation (luciferase)", "setting": "[5]", "value": "able to inhibit"},
      {"measurement": "MigA9 Number of colonies, Total", "setting": "[6]", "value": 101},
      {"measurement": "MigA9 colonies, BFU-E (%)", "setting": "[6]; share of total colonies", "value": "3 (3%)"},
      {"measurement": "MigA9 colonies, Total (%)", "setting": "[6]; share of total colonies", "value": 100, "unit": "%"},
      {"measurement": "inhibition of DNA binding of the HMG-box protein", "setting": "[7]", "value": "failed to inhibit"}
    ]},
    {"smiles": "N=C(N)c1ccc(-c2ccc(-c3nc4cc(C(=N)N)ccc4o3)o2)cc1", "note": "[DB828]", "values": [
      {"measurement": "recognition of 5′-ATTTA site in DNase I footprinting", "setting": "[2]", "value": "failed to recognize"},
      {"measurement": "over-expression of Itgam, Oasl2, Akap13 and Arfgef1", "setting": "[3]", "value": "failed to achieve the similar results"},
      {"measurement": "inhibition of HOXA9-mediated transactivation (luciferase)", "setting": "[5]", "value": "failed"},
      {"measurement": "MigA9 Number of colonies, BFU-E", "setting": "[6]", "value": 2},
      {"measurement": "MigA9 Number of colonies, CFU-GM", "setting": "[6]", "value": 90},
      {"measurement": "MigA9 Number of colonies, CFU-M", "setting": "[6]", "value": 16},
      {"measurement": "MigA9 Number of colonies, Total", "setting": "[6]", "value": 170},
      {"measurement": "MigA9 colonies, Total (%)", "setting": "[6]; share of total colonies", "value": 100, "unit": "%"},
      {"measurement": "entry into cells and localization in the nucleus", "setting": "[8]", "value": "localized to the nucleus"},
      {"measurement": "induced CD signal", "setting": "[9]", "value": "only weak CD changes"}
    ]},
    {"smiles": "N=C(Nc1ccc(-c2ccc(-c3ccc(NC(=N)c4ccccn4)cc3)[nH]2)cc1)c1ccccn1", "note": "[DB883]", "values": [
      {"measurement": "recognition of 5′-ATTTA site in DNase I footprinting", "setting": "[2]", "value": "failed to recognize"}
    ]},
    {"smiles": "N=C(N)c1ccc(-c2cccc(-c3nc4ccc(C(=N)N)cc4[nH]3)c2)cc1", "note": "[DB911]", "values": [
      {"measurement": "entry into cells and localization in the nucleus", "setting": "[8]", "value": "could not be detected"}
    ]},
    {"smiles": "N=C(N)c1cccc(-c2ccc(-c3nc4cc(C(=N)N)ccc4[nH]3)cc2)c1", "note": "[DB1055]", "values": [
      {"measurement": "recognition of 5′-ATTTA site in DNase I footprinting", "setting": "[2]", "value": "protected site was clearly evidenced"},
      {"measurement": "K562 Number of colonies, Total", "setting": "[4]", "value": "467 +/− 12"},
      {"measurement": "inhibition of HOXA9-mediated transactivation (luciferase)", "setting": "[5]", "value": "able to inhibit"},
      {"measurement": "MigA9 Number of colonies, BFU-E", "setting": "[6]", "value": 2},
      {"measurement": "MigA9 Number of colonies, CFU-G", "setting": "[6]", "value": 58},
      {"measurement": "MigA9 Number of colonies, CFU-M", "setting": "[6]", "value": 55},
      {"measurement": "MigA9 Number of colonies, Total", "setting": "[6]", "value": 115},
      {"measurement": "MigA9 colonies, CFU-GM (%)", "setting": "[6]; share of total colonies", "value": "0 (0%)"},
      {"measurement": "MigA9 colonies, Total (%)", "setting": "[6]; share of total colonies", "value": 100, "unit": "%"},
      {"measurement": "inhibition of DNA binding of the HMG-box protein", "setting": "[7]", "value": "failed to inhibit"},
      {"measurement": "% SubG1 48H", "setting": "[10]; MigA9, 15 μM", "value": "1.27 +/− 0.20%"}
    ]},
    {"smiles": "N=C(N)c1ccc(-c2ccc(-c3ccc4ccc(C(=N)N)cc4c3)cc2)cc1", "note": "[DB1177]", "values": [
      {"measurement": "recognition of 5′-ATTTA site in DNase I footprinting", "setting": "[2]", "value": "much weaker binding activity"},
      {"measurement": "sub-group for HOXA9/DNA binding inhibition", "setting": "[11]", "value": "Medium"}
    ]},
    {"smiles": "N=C(N)c1ccc(-c2ccc(-c3cc4ccc(C(=N)N)cc4[nH]3)o2)cc1", "note": "[DB1878]", "values": [
      {"measurement": "recognition of 5′-ATTTA site in DNase I footprinting", "setting": "[2]", "value": "much weaker binding activity"},
      {"measurement": "% SubG1 48H", "setting": "[10]; MigA9, 10 μM", "value": "15.94 +/− 1.80 ^$ %"},
      {"measurement": "% SubG1 48H", "setting": "[10]; MigA9, 15 μM", "value": "27.88 +/− 16.14 * %"}
    ]},
    {"smiles": "N=C(N)c1ccc(-c2ccc(-c3cc4ccc(C(=N)N)cc4[nH]3)s2)cc1", "note": "[DB1879, 2-(5-(4-Carbamimidoylphenyl)thiophen-2-yl)-1H-indole-6-carboximidamide diydrochloride]", "values": [
      {"measurement": "recognition of 5′-ATTTA site in DNase I footprinting", "setting": "[2]", "value": "protected site was clearly evidenced"}
    ]},
    {"smiles": "N=C(N)c1ccc(-c2ccc(-c3cc4ccc(C(=N)N)cc4[nH]3)s2)nc1", "note": "[DB2529, 2-(5-(5-Carbamimidoylpyridin-2-yl)thiophen-2-yl)-1H-indole-6-carboximidamide trihydrochloride]", "values": [
      {"measurement": "recognition of 5′-ATTTA site in DNase I footprinting", "setting": "[2]", "value": "protected site was clearly evidenced"}
    ]}
  ]
}
